According to patent US20050013914A1, “Method of sustaining aroma and use thereof” (priority 2001, published 2005):
Like-named read-outs stand apart in the source and are kept apart here.

Columns and labels:
Type in all cases: physicochemical
[1] = Adsorption of aromatic substances on CTS crystalline anhydrate (Example C-3)
Experimental: The following explains the experimental method in detail. […] The amount of the adsorbed aromatic substances was calculated by measuring the weight of the resulting powders and subtracting their starting powder weight (4 g).

[2] = Adsorption of liquid ethanol or acetic acid on saccharide powder (Example C-1); details: until mixture did not keep a powder form; for Amount of Adsorbed Acetic Acid: acetic acid adsorbed on 1 g of saccharide; for Amount of Adsorbed Ethanol: ethanol adsorbed on 1 g of saccharide
Text: CTS crystalline pentahydrate, prepared by the method described in Example B-3, CTS crystalline monohydrate, prepared by the method described in Example B-4, CTS crystalline anhydrate, prepared by the method described in Example B-5, or CTS amorphous anhydrate prepared by the method described in Example B-6, was used for preparation of aroma-retaining material. “ISOELEAT P™”, a branched cyclodextrin commercialized by Maruha corporation, Tokyo, Japan, anhydrous trehalose prepared by the method described in Japanese Patent Kokai No. 111,284/97, “PINEFIBRE™”, a dextrin commercialized by Matsutani Chemical Industries Co., Ltd., Tokyo, Japan, or soluble starch in a reagent grade commercialized by Katayama Chemical Industries, Co., Ltd., Tokyo, Japan, was dried in vacuo at 80° C. for 16 hours as control saccharides. […] The resulting mixture was weighed. The weight of ethanol or acetic acid was calculated by subtracting the pre-measured saccharide weight. The weight of ethanol or acetic acid adsorbed on 1 g of each saccharide was in Table 1.

[3] = Adsorption and 10-day retention of lavender oil, citronellol or phenethyl alcohol on saccharides (Example C-4); details: for Amount of the Adsorbed Substance: freshly prepared sample; for Relative Amount of the Retained Substance: preserved at 25° C. for 10 days vs freshly prepared
Text: The following example is a test to confirm the effect of CTS crystalline hydrate, CTS crystalline anhydrate, or CTS amorphous anhydrate on retaining, as an aromatic substance, lavender oil, citronellol, or phenethyl alcohol. CTS crystalline pentahydrate prepared by the method described in Example B-3, CTS crystalline anhydrate in Example B-5, and CTS amorphous anhydrate in Example B-6 were used as the test saccharides “ISOELEAT P®”, a branched cyclodextrin commercialized by Maruha Corporation, Tokyo, Japan, was used as a control.
In the case of lavender oil, five parts by weight of each of the above saccharides were taken into a glass dish sized 90 mm in diameter and 20 mm in depth, admixed with one part by weight of lavender oil by stirring. Lavender oil was measured by the method described as follows; admixing 2 ml of diethyl ether with 1 g of each of the above samples freshly prepared or after preserved at 25° C. for 10 days; measuring the extracted lavender oil by gas chromatography using “GC-14B” (a gas chromatography commercialized by Shimazu corporation, Kyoto, Japan) equipped with “TC-Wax” (a capillary column sized 0.53 mm in diameter and 25 m in length commercialized by GL Sciences Inc., Tokyo, Japan.
In the case of citronellol or phenethyl alcohol, five parts by weight of each of the above saccharides were taken into a glass dish sized 90 mm in diameter and 20 mm in depth, admixed with one part by weight of citronellol or phenethyl alcohol, and mixed by stirring. The adsorbed citronellol or phenethyl alcohol was measured by admixing 2 ml of diethyl ether with 1 g of each of the above sample freshly prepared or after preserved at 25° C. for 10 days, and measuring the extracted lavender oil by gas chromatography using “GC-14B” (a gas chromatography device commercialized by Shimazu corporation, Kyoto, Japan) equipped with “DB-5” (a capillary column sized 0.25 mm in diameter and 30 m in length commercialized by GL Sciences Inc., Tokyo, Japan).
The amount of the retained aromatic substance in each sample was calculated using the following formula, and the results were shown in Table 4.
Formula: Relative amount of the retained Substance (%)={(an amount of aromatic substance in a sample preserved for 10 days)/(an amount of aromatic substance in a freshly prepared sample)}×100

[4] = aromatic substance adsorbed per 1 g of CTS crystalline anhydrate
[5] = citronellol, listed as Sample 3
[6] = lavender oil, listed as Sample 3
[7] = phenethyl alcohol, listed as Sample 3
[8] = citronellol, listed as Sample 1
[9] = lavender oil, listed as Sample 1
[10] = phenethyl alcohol, listed as Sample 1

Compound | Amount of Adsorbed Substance [1, 4] | further results
CC(C)(C)O [2-Methyl-2-Propanol] | – | Amount of Adsorbed Substance [1]: 0.32 g
OCC1OC2OCC3O[C@H](O[C@H]4C(O)C(CO)OC(OCC5O[C@H](O[C@@H](C1O)C2O)C(O)C(O)[C@@H]5O)C4O)C(O)C(O)[C@@H]3O (some centres unmarked) [CTS crystalline monohydrate] | – | Amount of Adsorbed Acetic Acid [2]: 0.35 g; Amount of Adsorbed Ethanol [2]: 0.45 g
c1ccccc1 [Benzene] | 0.14 g | –
O=CO [Formic Acid] | – | Amount of Adsorbed Substance [1]: 0.24 g
CO [Methanol] | – | Amount of Adsorbed Substance [1]: 0.61 g
CC1=CCC(O)(C(C)C)CC1 (centres unmarked) [Terpinen-4-ol] | 0.34 g | –
CC(=O)CC(C)(C)O [Diacetone Alcohol] | 0.28 g | –
C=CCN=C=S [Allylisothiocyanate] | 0.37 g | –
ClC(Cl)Cl [Chloroform] | – | Amount of Adsorbed Substance [1]: 0.32 g
COc1ccccc1O [o-Methoxyphenol] | 0.42 g | –
CCC(=O)O [Propionic Acid] | 0.50 g | –
CC(=O)O [Acetic Acid] | 0.47 g | –
CCCCCC(=O)O [Capronic Acid] | 0.47 g | –
CCCCCO [1-Pentanol] | 0.31 g | –
CCCCCCCC(=O)O [Octanic Acid] | 0.47 g | –
CCO [Ethanol] | 0.50 g | –
OCCCc1ccccc1 [3-Phenyl-1-Propanol] | 0.52 g | –
1-Propanol | 0.46 g | –
Bornylacetate | 0.48 g | –
CC(C)=CCCC(C)CCO (centres unmarked) [Citronellol] | 0.39 g | –
CC(C)c1cccc(=O)c(O)c1 [Hinokithiol] | 0.29 g | –
CCCCCOC(C)=O [Pentylacetate] | 0.46 g | –
OCC1OC2OCC3O[C@H](O[C@H]4C(O)C(CO)OC(OCC5O[C@H](O[C@@H](C1O)C2O)C(O)C(O)[C@@H]5O)C4O)C(O)C(O)[C@@H]3O (some centres unmarked) [CTS amorphous anhydrate] | – | Amount of Adsorbed Acetic Acid [2]: 0.47 g; Amount of Adsorbed Ethanol [2]: 0.49 g; Adsorbing capability relative to branched cyclodextrin ([3]; citronellol): about 1.2 fold; Amount of the Adsorbed Substance ([3]; citronellol): 190 mg/g saccharide; Amount of the Adsorbed Substance [3, 5]: 190 mg/g saccharide; Relative Amount of the Retained Substance [3, 5]: 40%; Adsorbing capacity relative to branched cyclodextrin ([3]; lavender oil): about 1.3 fold; Amount of the Adsorbed Substance ([3]; lavender oil, listed as CTS amorphous anhydrte): 185 mg/g saccharide; Amount of the Adsorbed Substance [3, 6]: 185 mg/g saccharide; Relative Amount of the Retained Substance [3, 6]: 8%; Amount of the Adsorbed Substance ([3]; phenethyl alcohol): 180 mg/g saccharide; Amount of the Adsorbed Substance [3, 7]: 180 mg/g saccharide; Relative Amount of the Retained Substance [3, 7]: 12%
CCCCCCCCO [1-Octanol] | 0.28 g | –

Compound | Amount of Adsorbed Substance [1, 4] | further results
Cc1ccccc1 [Toluene] | – | Amount of Adsorbed Substance [1]: 0.29 g
CC(C)C(=O)O [Isobutyric Acid] | 0.51 g | –
CCCCC(=O)O [Valeric Acid] | 0.47 g | –
CC(C)CO [2-Methyl-1-Propanol] | 0.36 g | –
OCCCCO [1,4-Butanediol] | – | Amount of Adsorbed Substance [1]: 0.28 g
C=C(C)[C@H]1CC=C(C)CC1 [Limonene] | 0.42 g | –
CC(C)=CCCC(C)CC=O (centres unmarked) [Citronellal] | 0.46 g | –
NCCO [2-Aminoethanol] | 0.13 g | –
3-Methyl-1-Propanol | 0.36 g | –
CCCC(=O)O [Butyric Acid] | 0.55 g | –
OCCc1ccccc1 [Phenethyl Alcohol] | 0.40 g | –
CC(C)(C)N=C=S [t-Butylisothiocyanate] | 0.36 g | –
ClCc1ccccc1 [Benzyl Chloride] | 0.32 g | –
CC(C)O [2-Propanol] | 0.48 g | –
CCCCCCO [1-Hexanol] | 0.41 g | –
OCC1OC2OCC3O[C@H](O[C@H]4C(O)C(CO)OC(OCC5O[C@H](O[C@@H](C1O)C2O)C(O)C(O)[C@@H]5O)C4O)C(O)C(O)[C@@H]3O (some centres unmarked) [CTS crystalline pentahydrate] | – | Amount of Adsorbed Acetic Acid [2]: 0.27 g; Amount of Adsorbed Ethanol [2]: 0.32 g; Amount of the Adsorbed Substance ([3]; citronellol, listed as CTS crystalline hydrate): 155 mg/g saccharide; Amount of the Adsorbed Substance [3, 8]: 155 mg/g saccharide; Relative Amount of the Retained Substance [3, 8]: 30%; Amount of the Adsorbed Substance ([3]; lavender oil, listed as CTS crystalline hydrate): 150 mg/g saccharide; Amount of the Adsorbed Substance [3, 9]: 150 mg/g saccharide; Relative Amount of the Retained Substance [3, 9]: 1%; Amount of the Adsorbed Substance ([3]; phenethyl alcohol, listed as CTS crystalline hydrate): 140 mg/g saccharide; Amount of the Adsorbed Substance [3, 10]: 140 mg/g saccharide; Relative Amount of the Retained Substance [3, 10]: 3%
CC1=CC=C(C(C)C)CC1 [α-Terpinene] | 0.37 g | –
CC1=CCC2CC1C2(C)C (stereo not drawn) [α-Pinene] | 0.35 g | –
OCc1ccccc1 [Benzyl Alcohol] | 0.43 g | –
CC(C)=CCC/C(C)=C/CO [Geraniol] | 0.32 g | –
C=CC(C)(O)CCC=C(C)C (centres unmarked) [Linalool] | 0.42 g | –
CCOCC [Diethyl Ether] | – | Amount of Adsorbed Substance [1]: 0.17 g
C=C1CCC2CC1C2(C)C (stereo not drawn) [β-Pinene] | 0.30 g | –
CC1=CCC(C(C)(C)O)CC1 (stereo not drawn) [α-Terpineol] | 0.33 g | –
